Some test systems named below: SK-OV-3; A498; OVCAR-4; T47D; CAKI-1; DU-145; SR; HOP-62; RXF 393; ACHN; UACC-257; MDA-MB-435; NCI-H460; U-251; OVCAR-5; Hs-578T; EKVX; COLO 205; BT-549; Malme-3M.
Holding throughout (assay): DTP human tumour cell line panel, 48 h

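Cultured in 96-well plates, cells were exposed to test compound for 48 hours across five concentrations. GI50 marks 50% less growth.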 Calls of active or inactive are those of the source. Cut-off read from the data, not from the text of the source: active = GI50 up to about 1.1 µM and inactive = higher.

The GI50 is the concentration at which growth is held to half of that of the control. With `O=C(c1cc2c(c3ccccc13)NCCN=C2C(F)(F)F)C(F)(F)F`, the GI50 is 37.4 µM (inactive) with SK-OV-3; 17.1 µM (inactive) with A498; 38.7 µM (inactive) in the experiment with OVCAR-4; 21.4 µM (inactive) in the experiment on T47D; 32.4 µM (inactive) in the experiment on CAKI-1; 41.4 µM (inactive) in the experiment with DU-145. In addition, the GI50 was 3.94 µM (inactive) with SR; 19.7 µM (inactive) in the experiment with HOP-62; 23.3 µM (inactive) in the experiment with RXF 393; 22.8 µM (inactive) with ACHN; 19.3 µM (inactive) with UACC-257; 34.2 µM (inactive) in the experiment with MDA-MB-435. Also, the GI50 is 15.5 µM (inactive) in the experiment with NCI-H460; 13.5 µM (inactive) in the experiment with U-251; 65.3 µM (inactive) in the experiment on OVCAR-5; 14.3 µM (inactive) in the experiment with Hs-578T; 47.4 µM (inactive) in the experiment with EKVX.

Take `CCCCCCCCCCCCCCCCCCNc1nc(=O)n(C2CC(OP(=O)(O)OCC3OC(n4cc(F)c(=O)[nH]c4=O)CC3O)C(CO)O2)cc1F` (stereo not given): the GI50 in the experiment with COLO 205 is 20.7 µM (inactive); with SK-OV-3, 31.7 µM (inactive); in the experiment with A498, 13 µM (inactive); in the experiment with OVCAR-4, > 100 µM (inactive); in the experiment on T47D it was 31.2 µM (inactive); with CAKI-1, 26.2 µM (inactive). Also, the GI50 is 62.2 µM (inactive) in the experiment on DU-145; 4.86 µM (inactive) in the experiment on SR; 15.2 µM (inactive) in the experiment on HOP-62; 11.4 µM (inactive) with RXF 393; 11.2 µM (inactive) in the experiment on ACHN; 61 µM (inactive) in the experiment with UACC-257. The GI50 is 75.2 µM (inactive) in the experiment with MDA-MB-435; 17.5 µM (inactive) in the experiment on U-251; 54.2 µM (inactive) with OVCAR-5; 35.2 µM (inactive) in the experiment with Hs-578T; > 100 µM (inactive) in the experiment with EKVX.

Regarding `O=[N+]([O-])c1ccc(CSc2nn(Cc3ccc([N+](=O)[O-])cc3)cc3ncnc2-3)cc1`, the GI50 in the experiment with COLO 205 is 39.5 µM (inactive); in the experiment on SK-OV-3, > 100 µM (inactive); in the experiment on A498 it was 18.4 µM (inactive); in the experiment on OVCAR-4, 52.5 µM (inactive); with T47D, 44.6 µM (inactive); in the experiment with CAKI-1 it was 35.2 µM (inactive). Further, the GI50 was 31.8 µM (inactive) in the experiment on HOP-62; 21 µM (inactive) in the experiment on BT-549; 27.4 µM (inactive) with Malme-3M; 27.5 µM (inactive) with ACHN; 29 µM (inactive) with UACC-257; 21.1 µM (inactive) in the experiment with MDA-MB-435. Further, the GI50 with U-251 is > 10 µM (inactive); in the experiment with OVCAR-5 it was > 100 µM (inactive); with EKVX, 69.3 µM (inactive).

Consider `O=C(COc1ccc(Cl)c(Cl)c1)N(Cc1ccccc1)Cc1ccc[n+](Cc2ccc(Cl)cc2S(=O)(=O)F)c1`, for which the GI50 was 72.3 µM (inactive) in the experiment on COLO 205; > 100 µM (inactive) in the experiment on SK-OV-3; > 100 µM (inactive) in the experiment on A498; > 100 µM (inactive) with OVCAR-4; 59.7 µM (inactive) in the experiment with T47D; > 100 µM (inactive) in the experiment with CAKI-1. Moreover, the GI50 in the experiment with DU-145 is > 100 µM (inactive); in the experiment on SR it was 23.2 µM (inactive); with HOP-62, > 100 µM (inactive); in the experiment with RXF 393, > 100 µM (inactive); in the experiment on Malme-3M, 20 µM (inactive); in the experiment on ACHN, 56.4 µM (inactive). Besides, the GI50 in the experiment with UACC-257 is 35.4 µM (inactive); in the experiment with MDA-MB-435, 29.9 µM (inactive); in the experiment on NCI-H460 it was > 100 µM (inactive); in the experiment with U-251, 25.8 µM (inactive); in the experiment on OVCAR-5 it was > 100 µM (inactive); with Hs-578T, 40.8 µM (inactive).

As to `CCn1cnc2c(NC(C)=O)ncnc21`, the GI50 with COLO 205, in the experiment on SK-OV-3, in the experiment on OVCAR-4, with T47D, in the experiment with CAKI-1 and in the experiment on DU-145 was > 100 µM (inactive) throughout. For the same compound, the GI50 with HOP-62, in the experiment with BT-549, in the experiment on RXF 393, in the experiment with Malme-3M, with ACHN and in the experiment with UACC-257 was > 100 µM (inactive) throughout. For the same compound, the GI50 in the experiment with MDA-MB-435, in the experiment on NCI-H460, in the experiment with U-251, with OVCAR-5 and with EKVX was > 100 µM (inactive) in each case.

For the compound `Nn1c(S)nnc1-c1ccccc1Nc1ccccc1-c1nnc(S)n1N`, the GI50 in the experiment with COLO 205, in the experiment with OVCAR-4, in the experiment on DU-145, in the experiment with SR, in the experiment with HOP-62 and in the experiment on BT-549 was > 50 µM (inactive) each time. In addition, the GI50 in the experiment on RXF 393, in the experiment on Malme-3M, with ACHN, in the experiment with UACC-257, in the experiment on MDA-MB-435 and in the experiment on NCI-H460 was > 50 µM (inactive) each time. Also, the GI50 in the experiment on U-251, in the experiment on OVCAR-5 and in the experiment on EKVX was > 50 µM (inactive) in each case.

Take `Cc1n[nH]/c(=N\S(=O)(=O)c2ccc(/N=N/c3c(O)c(C(=O)O)cc4ccccc34)cc2)s1`: the GI50 in the experiment with COLO 205, with SK-OV-3, in the experiment with OVCAR-4, in the experiment with T47D, with CAKI-1 and in the experiment on DU-145 was > 100 µM (inactive) each time. Further, the GI50 with SR, with HOP-62, in the experiment with RXF 393, in the experiment with Malme-3M, in the experiment with ACHN and with UACC-257 was > 100 µM (inactive) each time. Besides, the GI50 with MDA-MB-435, in the experiment with NCI-H460, in the experiment on U-251, in the experiment on OVCAR-5, in the experiment with Hs-578T and with EKVX was > 100 µM (inactive) each time.

With `N#C/C(=C\c1ccccc1Br)C(=O)c1ccccc1`, the GI50 in the experiment on COLO 205 was > 65.9 µM (inactive); in the experiment on SK-OV-3, > 100 µM (inactive); in the experiment with A498, > 100 µM (inactive); with OVCAR-4, 7.14 µM (inactive); in the experiment on CAKI-1, > 71.8 µM (inactive); in the experiment with SR it was 13.3 µM (inactive). The GI50 was 39.7 µM (inactive) in the experiment with HOP-62; 32.9 µM (inactive) with RXF 393; > 53.1 µM (inactive) in the experiment with Malme-3M; > 53.8 µM (inactive) in the experiment with ACHN; > 60 µM (inactive) in the experiment with UACC-257; > 92.9 µM (inactive) in the experiment on NCI-H460. The GI50 is > 48.3 µM (inactive) with U-251, > 61.7 µM (inactive) in the experiment with OVCAR-5 and > 100 µM (inactive) in the experiment with EKVX.

Regarding `CCSc1[nH]c(/N=C(/NC(=O)c2ccccc2)NC(C)C)c(C(N)=O)c1C(N)=O`, the GI50 with COLO 205, in the experiment on SK-OV-3, in the experiment on OVCAR-4, in the experiment on T47D, in the experiment on CAKI-1 and with DU-145 was > 10 µM (inactive) in each case. Moreover, the GI50 in the experiment on SR, in the experiment with RXF 393, in the experiment on Malme-3M, with UACC-257, with MDA-MB-435 and with EKVX was > 10 µM (inactive) throughout.

In the case of `CC(=O)/N=C1\NC(=O)/C(=C/c2ccc(/C=C3/C(=O)N/C(=N\C(C)=O)N3C)cc2)N1C`, the GI50 in the experiment with COLO 205, with SK-OV-3, in the experiment with A498, with OVCAR-4, in the experiment on T47D and in the experiment on CAKI-1 was > 100 µM (inactive) throughout. Besides, the GI50 in the experiment on DU-145, with HOP-62, with BT-549, with RXF 393, in the experiment with ACHN and in the experiment on UACC-257 was > 100 µM (inactive) in each case. Besides, the GI50 with MDA-MB-435, in the experiment with NCI-H460, with U-251, with OVCAR-5 and in the experiment with EKVX was > 100 µM (inactive) throughout.

Regarding `CCc1n[nH]c(=O)n1-c1ccc2ccccc2c1`, the GI50 in the experiment on COLO 205, in the experiment with SK-OV-3, in the experiment on A498, in the experiment on OVCAR-4, in the experiment on T47D and in the experiment on CAKI-1 was > 100 µM (inactive) throughout. The GI50 in the experiment with DU-145, with SR, with HOP-62, with RXF 393, with Malme-3M and in the experiment with ACHN was > 100 µM (inactive) throughout. The GI50 with UACC-257, in the experiment with MDA-MB-435, with NCI-H460, in the experiment with U-251, with OVCAR-5 and in the experiment with Hs-578T was > 100 µM (inactive) throughout. Further, in the experiment with EKVX, the GI50 was > 100 µM (inactive).

`CCCOc1ccc(/C(Cl)=C(\C=O)c2ccc(OC)c(OC)c2)cc1OCCC`: the GI50 was 4.22 µM (inactive) in the experiment on COLO 205; 30.1 µM (inactive) with SK-OV-3; 12.3 µM (inactive) in the experiment with A498; 7.03 µM (inactive) in the experiment with OVCAR-4; 75.3 µM (inactive) in the experiment on CAKI-1; 2.52 µM (inactive) in the experiment with SR. Also, the GI50 in the experiment on HOP-62 was 19.8 µM (inactive); in the experiment with RXF 393 it was 3.28 µM (inactive); with Malme-3M, 0.804 µM (active); in the experiment on ACHN, 9.31 µM (inactive); in the experiment with UACC-257 it was 11 µM (inactive); in the experiment with NCI-H460, 7.1 µM (inactive). In addition, the GI50 is 5.73 µM (inactive) in the experiment with U-251, 39.3 µM (inactive) in the experiment with OVCAR-5 and 10.9 µM (inactive) in the experiment with EKVX.

The values above are taken from ChEMBL document CHEMBL1201862, “PubChem BioAssay data set” (2004).
